From patent US6559101B2, “N- (5, 7-dimethoxy [1, 2, 4] triazolo [1, 5-a] pyrimidin-2-yl) arylsulfonamide compounds and their use as herbicides” (Dow AgroSciences LLC, priority 2000, dated 2003)

Key:
Format in all cases: in vivo
[1] = tested on: blackgrass (Alopecurus myosuroides); experiment: Postemergence herbicidal activity; details: scored after 2 weeks, 0 no injury, 100 complete kill
Description: (§1) Seeds of the desired test plant species were planted in Grace-Sierra MetroMix® 306 planting mixture, which typically has a pH of 6.0 to 6.8 and an organic matter content of about 30 percent, in plastic pots with a surface area of 64 square centimeters. When required to ensure good germination and healthy plants, a fungicide treatment and/or other chemical or physical treatment was applied. The plants were grown for 7-21 days in a greenhouse with an approximately 15 hr photoperiod which was maintained at about 23-29° C. during the day and 22-28° C. during the night. Nutrients and water were added on a regular basis and supplemental lighting was provided with overhead metal halide 1000 Watt lamps as necessary. The plants were employed for testing when they reached the first or second true leaf stage. A weighed amount of each test compound, determined by the highest rate to be tested, was placed in a 20 mL glass vial and was dissolved in 4 mL of a 97:3 v/v (volume/volume) mixture of acetone and dimethyl sulfoxide to obtain concentrated stock solutions. […] The concentrated stock solutions obtained were diluted with an aqueous mixture containing acetone, water, iso-propyl alcohol, dimethyl sulfoxide, Atplus 411F crop oil concentrate, and Triton X-155 surfactant (methylenebisdiamyl phenoxy polyethoxy ethanol) in a 48.5:39:10:1.5:1.0:0.02 v/v ratio to obtain spray solutions of known concentration. The solutions containing the highest concentration to be tested were prepared by diluting 2 mL aliquots of the stock solution with 13 mL of the mixture and lower concentrations were prepared by dilution of appropriate smaller portions of the stock solution. Approximately 1.5 mL aliquots of each solution of known concentration were sprayed evenly onto each of the test plant pots using a Devilbiss atomizer driven by compressed air pressure of 2 to 4 psi (140 to 280 kiloPascals) to obtain thorough coverage of each plant. Control plants were sprayed in the same manner with the aqueous mixture. In this test an application rate of 1 ppm results in the application of approximately 1 g/ha. The treated plants and control plants were placed in a greenhouse as described above and watered by sub-irrigation to prevent wash-off of the test compounds. After 2 weeks the condition of the test plants as compared with that of the untreated plants was determined visually and scored on a scale of 0 to 100 percent where 0 corresponds to no injury and 100 corresponds to complete kill.

[2] = tested on: chickweed (Stellaria media); experiment: Postemergence herbicidal activity; details: scored after 2 weeks, 0 no injury, 100 complete kill
Description: as §1

[3] = tested on: velvetleaf (Abutilion theophrasti); experiment: Postemergence herbicidal activity; details: scored after 2 weeks, 0 no injury, 100 complete kill
Description: as §1

[4] = tested on: lambsquarters (Chenopodium album); experiment: Postemergence herbicidal activity; details: scored after 2 weeks, 0 no injury, 100 complete kill
Description: as §1

[5] = tested on: pigweed (Amaranthus retroflexus); experiment: Postemergence herbicidal activity; details: scored after 2 weeks, 0 no injury, 100 complete kill
Description: as §1

[6] = tested on: Rox orange sorghum (Sorghum bicolor); experiment: Postemergence herbicidal activity; details: scored after 2 weeks, 0 no injury, 100 complete kill
Description: as §1

wild oats (Avena fatua) [7] = experiment: Postemergence herbicidal activity; details: scored after 2 weeks, 0 no injury, 100 complete kill
Description: as §1

[8] = tested on: wild buckwheat (Polygonum convolvulus); experiment: Postemergence herbicidal activity; details: scored after 2 weeks, 0 no injury, 100 complete kill
Description: as §1

[9] = tested on: giant foxtail (Setaria faberi); experiment: Postemergence herbicidal activity; details: scored after 2 weeks, 0 no injury, 100 complete kill
Description: as §1

viola (Viola tricolor) = experiment: Postemergence herbicidal activity; details: scored after 2 weeks, 0 no injury, 100 complete kill
Description: as §1

[10] = tested on: cocklebur (Xanthium strumarium); experiment: Postemergence herbicidal activity; details: scored after 2 weeks, 0 no injury, 100 complete kill
Description: as §1

[11] = tested on: crabgrass (Digitaria sanguinalis); experiment: Preemergence herbicidal activity; details: scored after 3 weeks, 0 no injury, 100 complete kill or no germination
Description: (§2) The soil matrix was contained in plastic pots with a surface area of 161 square centimeters. When required to ensure good germination and healthy plants, a fungicide treatment and/or other chemical or physical treatment was applied. A weighed amount, determined by the highest rate to be tested, of each test compound was placed in a 20 mL glass vial and was dissolved in 8 mL of a 97:3 v/v (volume/volume) mixture of acetone and dimethyl sulfoxide to obtain concentrated stock solutions. […] The stock solutions obtained were diluted with a 99.9:0.1 mixture of water and Tween® 155 surfactant (ethoxylated sorbitan fatty acid ester) to obtain application solutions of known concentration. The solutions containing the highest concentration to be tested were prepared by diluting 4 mL aliquots of the stock solution with 8.5 mL of the mixture and lower concentrations were prepared by dilution of appropriate smaller portions of the stock solution. A 2.5 mL aliquot of each solution of known concentration was sprayed evenly onto the soil of each seeded pot using a Cornwall 5.0 mL glass syringe fitted with a TeeJet TN-3 hollow cone nozzle to obtain thorough coverage of the soil in each pot. Control pots were sprayed in the same manner with the aqueous mixture. A highest application rate of 4.48 kg/ha is achieved when 50 mg of test compound is employed. The treated pots and control pots were placed in a greenhouse with an approximately 15 hr photoperiod which was maintained at about 23-29° C. during the day and 22-28° C. during the night. Nutrients and water were added on a regular basis and supplemental lighting was provided with overhead metal halide 1000 Watt lamps as necessary. The water was added by top-irrigation. After 3 weeks the condition of the test plants that germinated and grew as compared with that of the untreated plants that germinated and grew was determined visually and scored on a scale of 0 to 100 percent where 0 corresponds to no injury and 100 corresponds to complete kill or no germination.

[12] = tested on: barnyardgrass (Echinochloa crus-galli); experiment: Preemergence herbicidal activity; details: scored after 3 weeks, 0 no injury, 100 complete kill or no germination
Description: as §2

[13] = tested on: wild poinsettia (Euphorbia heterophylla); experiment: Preemergence herbicidal activity; details: scored after 3 weeks, 0 no injury, 100 complete kill or no germination
Description: as §2

[14] = tested on: morningglory (Ipomoea hederacea); experiment: Preemergence herbicidal activity; details: scored after 3 weeks, 0 no injury, 100 complete kill or no germination
Description: as §2

[15] = tested on: blackgrass (Alopecurus myosuroides); experiment: Preemergence herbicidal activity; details: scored after 3 weeks, 0 no injury, 100 complete kill or no germination
Description: as §2

[16] = tested on: velvetleaf (Abutilion theophrasti); experiment: Preemergence herbicidal activity; details: scored after 3 weeks, 0 no injury, 100 complete kill or no germination
Description: as §2

[17] = tested on: pigweed (Amaranthus retroflexus); experiment: Preemergence herbicidal activity; details: scored after 3 weeks, 0 no injury, 100 complete kill or no germination
Description: as §2

[18] = tested on: Rox orange sorghum (Sorghum bicolor); experiment: Preemergence herbicidal activity; details: scored after 3 weeks, 0 no injury, 100 complete kill or no germination
Description: as §2

wild oats (Avena fatua) [19] = experiment: Preemergence herbicidal activity; details: scored after 3 weeks, 0 no injury, 100 complete kill or no germination
Description: as §2

[20] = tested on: giant foxtail (Setaria faberi); experiment: Preemergence herbicidal activity; details: scored after 3 weeks, 0 no injury, 100 complete kill or no germination
Description: as §2

[21] = tested on: cocklebur (Xanthium strumarium); experiment: Preemergence herbicidal activity; details: scored after 3 weeks, 0 no injury, 100 complete kill or no germination
Description: as §2

[22] = tested on: morningglory (Ipomoea hederacea); experiment: Postemergence herbicidal activity; details: 62.5 ppm; scored after 2 weeks; 0 no injury, 100 complete kill
Description: as §1

With `COc1cc(OC)n2nc(NS(=O)(=O)c3c(OCCF)cccc3C(F)(F)F)nc2n1` [Compound 3, N-(5,7-dimethoxy[1,2,4]triazolo[1,5-a]pyrimidin-2-yl)-2-(2-fluoroethoxy)-6-(trifluoromethyl)benzenesulfonamide] as the compound, how does the “Postemergence herbicidal activity ALOMY” value ([1]; 3.9 ppm) read?
The value was 95%.

And the “Postemergence herbicidal activity STEME” value ([2]; 3.9 ppm)?
The value was 95%.

And the “Postemergence herbicidal activity ABUTH” value ([3]; 3.9 ppm)?
The value was 80%.

What about the “Postemergence herbicidal activity CHEAL” value ([4]; 3.9 ppm) of the same compound?
Its value is 95%.

And the “Postemergence herbicidal activity AMARE” value ([5]; 3.9 ppm)?
The value was 98%.

What about the “Postemergence herbicidal activity SORBI” value ([6]; 3.9 ppm) of the same compound?
Its value is 70%.

What about the “Postemergence herbicidal activity AVEFA” value (wild oats (Avena fatua) [7]; 3.9 ppm) of the same compound?
Its value is 70%.

What about the “Postemergence herbicidal activity POLCO” value ([8]; 3.9 ppm) of the same compound?
The value was 98%.

What about the “Postemergence herbicidal activity SETFA” value ([9]; 3.9 ppm) of the same compound?
The value was 98%.

What about the “Postemergence herbicidal activity VIOTR” value (viola (Viola tricolor); 3.9 ppm) of the same compound?
Its value is 90%.

What about the “Postemergence herbicidal activity XANST” value ([10]; 3.9 ppm) of the same compound?
Its value is 75%.

What about the “Preemergence herbicidal activity DIGSA” value ([11]; 17.5 g/Ha) of the same compound?
The value was 100%.

What about the “Preemergence herbicidal activity ECHCG” value ([12]; 17.5 g/Ha) of the same compound?
Its value is 100%.

What about the “Preemergence herbicidal activity EPHHL” value ([13]; 17.5 g/Ha) of the same compound?
The value was 90%.

What about the “Preemergence herbicidal activity IPOHE” value ([14]; 17.5 g/Ha) of the same compound?
Its value is 98%.

And the “Preemergence herbicidal activity ALOMY” value ([15]; 17.5 g/Ha)?
Its value is 100%.

And the “Preemergence herbicidal activity ABUTH” value ([16]; 17.5 g/Ha)?
Its value is 100%.

And the “Preemergence herbicidal activity AMARE” value ([17]; 17.5 g/Ha)?
The value was 100%.

And the “Preemergence herbicidal activity SORBI” value ([18]; 17.5 g/Ha)?
The value was 100%.

And the “Preemergence herbicidal activity AVEFA” value (wild oats (Avena fatua) [19]; 17.5 g/Ha)?
The value was 95%.

And the “Preemergence herbicidal activity SETFA” value ([20]; 17.5 g/Ha)?
The value was 100%.

What about the “Preemergence herbicidal activity XANST” value ([21]; 17.5 g/Ha) of the same compound?
Its value is 100%.

`COc1cc(OC)n2nc(NS(=O)(=O)c3c(OC)cccc3OC)nc2n1` [Compound 2] was tested. Which “Postemergence herbicidal activity ALOMY” value ([1]; 15.6 ppm) did it give?
Its value is 98%.

And the “Postemergence herbicidal activity STEME” value ([2]; 15.6 ppm)?
The value was 98%.

And the “Postemergence herbicidal activity ABUTH” value ([3]; 15.6 ppm)?
The value was 95%.

What about the “Postemergence herbicidal activity CHEAL” value ([4]; 15.6 ppm) of the same compound?
Its value is 90%.

And the “Postemergence herbicidal activity AMARE” value ([5]; 15.6 ppm)?
Its value is 95%.

What about the “Postemergence herbicidal activity SORBI” value ([6]; 15.6 ppm) of the same compound?
The value was 100%.

What about the “Postemergence herbicidal activity AVEFA” value (wild oats (Avena fatua) [7]; 15.6 ppm) of the same compound?
The value was 98%.

What about the “Postemergence herbicidal activity POLCO” value ([8]; 15.6 ppm) of the same compound?
Its value is 98%.

What about the “Postemergence herbicidal activity SETFA” value ([9]; 15.6 ppm) of the same compound?
The value was 98%.

And the “Postemergence herbicidal activity VIOTR” value (viola (Viola tricolor); 15.6 ppm)?
The value was 90%.

What about the “Postemergence herbicidal activity XANST” value ([10]; 15.6 ppm) of the same compound?
The value was 70%.

And the “Preemergence herbicidal activity DIGSA” value ([11]; 17.5 g/Ha)?
Its value is 80%.

What about the “Preemergence herbicidal activity ECHCG” value ([12]; 17.5 g/Ha) of the same compound?
Its value is 60%.

And the “Preemergence herbicidal activity EPHHL” value ([13]; 17.5 g/Ha)?
The value was 85%.

And the “Preemergence herbicidal activity IPOHE” value ([14]; 17.5 g/Ha)?
The value was 85%.

What about the “Preemergence herbicidal activity ALOMY” value ([15]; 17.5 g/Ha) of the same compound?
Its value is 100%.

What about the “Preemergence herbicidal activity ABUTH” value ([16]; 17.5 g/Ha) of the same compound?
Its value is 75%.

And the “Preemergence herbicidal activity AMARE” value ([17]; 17.5 g/Ha)?
The value was 100%.

And the “Preemergence herbicidal activity SORBI” value ([18]; 17.5 g/Ha)?
Its value is 95%.

And the “Preemergence herbicidal activity AVEFA” value (wild oats (Avena fatua) [19]; 17.5 g/Ha)?
Its value is 75%.

And the “Preemergence herbicidal activity SETFA” value ([20]; 17.5 g/Ha)?
The value was 100%.

And the “Preemergence herbicidal activity XANST” value ([21]; 17.5 g/Ha)?
Its value is 80%.

Which results are given for `COC(=O)c1cccc(OC)c1S(=O)(=O)Nc1nc2nc(OC)cc(OC)n2n1` [Compound 7]?
Postemergence herbicidal activity IPOHE [22]: 80%; Postemergence herbicidal activity ALOMY ([1]; 62.5 ppm): 95%; Postemergence herbicidal activity STEME ([2]; 62.5 ppm): 90%; Postemergence herbicidal activity ABUTH ([3]; 62.5 ppm): 70%; Postemergence herbicidal activity AMARE ([5]; 62.5 ppm): 95%; Postemergence herbicidal activity SORBI ([6]; 62.5 ppm): 80%; Postemergence herbicidal activity AVEFA (wild oats (Avena fatua) [7]; 62.5 ppm): 90%; Postemergence herbicidal activity POLCO ([8]; 62.5 ppm): 85%; Postemergence herbicidal activity SETFA ([9]; 62.5 ppm): 95%; Postemergence herbicidal activity VIOTR (viola (Viola tricolor); 62.5 ppm): 80%; Postemergence herbicidal activity XANST ([10]; 62.5 ppm): 40%; Preemergence herbicidal activity DIGSA ([11]; 70 g/Ha): 40%; Preemergence herbicidal activity ECHCG ([12]; 70 g/Ha): 20%; Preemergence herbicidal activity EPHHL ([13]; 70 g/Ha): 20%; Preemergence herbicidal activity IPOHE ([14]; 70 g/Ha): 10%; Preemergence herbicidal activity ALOMY ([15]; 70 g/Ha): 100%; Preemergence herbicidal activity ABUTH ([16]; 70 g/Ha): 0%; Preemergence herbicidal activity AMARE ([17]; 70 g/Ha): 100%; Preemergence herbicidal activity SORBI ([18]; 70 g/Ha): 95%; Preemergence herbicidal activity AVEFA (wild oats (Avena fatua) [19]; 70 g/Ha): 70%; Preemergence herbicidal activity SETFA ([20]; 70 g/Ha): 100%; Preemergence herbicidal activity XANST ([21]; 70 g/Ha): 0%
